{
  "source": "paper PMC5301048",
  "about": "“Selection and early clinical evaluation of the brain‐penetrant 11β‐hydroxysteroid dehydrogenase type 1 (11β‐HSD1) inhibitor UE2343 (Xanamem™)” (British Journal of Pharmacology, 2017)",
  "key": {"[1]": {"assay": "Microsomal stability, dog liver microsomes", "assay_type": "in vitro ADME", "details": "mean ± SD [n]", "protocol": "Microsomal stability was determined using pooled human, rat or dog liver microsomes according to the method described in WO2011135276 (Webster et al., 2011a)."}, "CYP1A2": {"target": "T1, CYP1A2 (Homo sapiens, UniProt P05177)", "T1 construct": "tissue Cyprotex Discovery Limited; host or cells: human liver microsomes", "T1 sequence (P05177 1-516)": "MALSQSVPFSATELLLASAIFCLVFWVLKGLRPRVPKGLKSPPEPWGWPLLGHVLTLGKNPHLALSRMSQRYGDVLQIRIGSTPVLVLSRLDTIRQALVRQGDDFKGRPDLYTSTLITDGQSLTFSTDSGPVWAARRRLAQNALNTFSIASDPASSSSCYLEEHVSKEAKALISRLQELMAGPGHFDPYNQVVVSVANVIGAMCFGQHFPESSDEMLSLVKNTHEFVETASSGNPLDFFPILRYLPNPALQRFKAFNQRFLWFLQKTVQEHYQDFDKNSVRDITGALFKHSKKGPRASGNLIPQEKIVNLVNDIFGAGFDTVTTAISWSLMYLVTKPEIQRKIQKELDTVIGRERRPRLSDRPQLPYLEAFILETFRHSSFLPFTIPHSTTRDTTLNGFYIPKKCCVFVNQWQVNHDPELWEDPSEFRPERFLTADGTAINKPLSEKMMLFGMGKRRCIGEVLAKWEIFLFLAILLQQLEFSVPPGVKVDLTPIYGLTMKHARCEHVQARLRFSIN", "assay": "Cytochrome P450 inhibition, CYP1A2", "assay_type": "in vitro ADME", "details": "human liver microsomes; read-out: CYP450 isoform 1A2 IC50", "protocol": "Testing was performed by Cyprotex Discovery Limited, Cheshire, UK. Six test compound concentrations (0.4, 1, 4, 10, 40 and 100 μM; final DMSO concentration 0.25%, final microsome concentration 0.25 mg·mL^−1) were either pre‐incubated for 30 min in the absence and presence of NADPH or underwent a 0 min pre‐incubation with human liver microsomes. At the end of the pre‐incubation period, the probe substrate for each cytochrome P450 (CYP450) isoform (30 μM) and NADPH (1 mM) were then added (final DMSO concentration 0.3%), and the samples were incubated for 5 min at 37°C. Probe substrates were as follows: 1A2 – phenacetin, 2C9 – diclofenac, 2C19 – mephenytoin, 2D6 – dextromethorphan, 3A4 – midazolam and testosterone. Samples were subjected to LC–MS/MS analysis to determine metabolite concentrations. A decrease in the formation of the metabolite compared with vehicle control was used to calculate an IC50 value (test compound concentration which produces 50% inhibition) for each experimental condition."}},
  "data": [
    {"smiles": "O=C(c1csc(-c2cn[nH]c2)c1)N1C2CCC1CC(O)(c1ncccn1)C2", "note": "(centres unmarked) [compound 4]", "values": [
      {"measurement": "Liver microsomal stability (% parent at 30 min), dog", "setting": "[1]", "result": "92 ± 5 [3] % parent at 30 min"},
      {"measurement": "IC50", "setting": "CYP1A2", "result": "> 50", "unit": "µM"}
    ]}
  ]
}
